Source: US20020193379A1, “Compositions and methods for decreasing the risk of or preventing neural tube disorders in mammals” (Insmed Incorporated, priority 2001, published 2002)
Read-outs that look alike come from different tables or passages of the source. Values belong to the compound of their own block, whether it stands above or below them.

How the values were obtained:
curly-tail mouse embryos = test: In vitro culture of curly-tail mouse embryos with inositols at 20 μg/ml for 24 hours; type: cell-based; settings: for Mean posterior neuropore length / Mean posterior neuropore to crown-rump length ratio: in vitro; for Fold decrease in mean posterior neuropore length: 24 hours of treatment in vitro
Procedure: In in vitro studies, curly-tail mouse embryos were explanted into culture at 9.5 days after conception, corresponding to the onset of low spinal cord neural tube closure. Inositol additions were made at the start of culture and were maintained throughout the 24 hour culture period. Inositols were maintained at 20 μg/ml. At the end of culture, the embryos were dissected from their extraembryonic membranes, and crown-rump and posterior neuropore lengths were measured as indices of developmental growth, progression and low spinal neural tube closure.

[1] = test system: curly tail mouse fetuses (NTDs characterized by spina bifida); test: In vivo treatment of pregnant curly-tail mice by subcutaneous minipump, fetuses scored for NTDs; settings: subcutaneous 90 mg/kg/day, four to ten days
Procedure: (§1) In in vivo studies, pregnant curly-tail female mice were treated with inositols or PBS (control) by either subcutaneous injection or oral gavage. Using inositols at 75 mg/ml injected by subcutaneous minipump at […], a total daily dosage of 90 mg/kg/day was administered. Inositols were administered from gestational day 8.5 through day 18.5, and fetuses were scored for NTDs on days 12.5 and 18.5. For oral dosing, mice were administered via gavage with 400 mg/kg of inositol twice daily on gestational days 8.5 through 10.5, with fetuses scored for NTDs on day 12.5.

[2] = test system: curly tail mouse fetuses (NTDs characterized by spina bifida); test: In vivo treatment of pregnant curly-tail mice by oral gavage, fetuses scored for NTDs; settings: three days; for Number of fetuses showing NTDs characterized by spina bifida / Percent of treated fetuses showing spina bifida: oral gavage 400 mg/kg twice daily
Procedure: as §1

[3] = test system: curly tail embryos (posterior neuropore closure); type: cell-based, mouse; settings: for Effect on posterior neuropore length: vs PBS-treated controls
Procedure: (§2) Mice—Curly tail mice are maintained as a homozygous, random-bred stock (Van Straaten, H. W. M. & Copp, A. J., Anat. Embryol. 203, 225-237 (2001)) Experimental litters were generated by timed matings, and the day of finding a copulation plug was designated embryonic day (E) 0.5.
In vitro inositol treatment—E9.5 embryos (17-19 somite stage) were cultured for 24 hours at 38° C. in whole rat serum. Thirty minutes after the start of culture, myo-inositol (Sigma, UK) or D-chiro-inositol (Insmed, Va., USA) was added to the medium (62.5 μl of inositol stock per ml rat serum) to a final concentration of 5, 10, 20 or 50 μg/ml inositol. Control cultures received an equal volume of phosphate buffered saline (PBS). Following culture, embryos were scored for: (i) posterior neuropore length (the distance from the rostral end of the posterior neuropore to the tip of the tail bud), (ii) crown-rump length and (iii) somite number.

[4] = test system: curly tail fetuses (spina bifida and tail flexion defects); type: in vivo, mouse; settings: for Likelihood of fetuses being normal vs PBS (ordinal multilevel regression): subcutaneous; for Decrease in spina bifida frequency relative to PBS controls: subcutaneous 72 and 144 μg/g body weight/day
Procedure: as §2
In utero inositol treatment (subcutaneous administration)—For sub-cutaneous administration, osmotic mini-pumps (capacity 100 μl, delivery rate 1 μl/hour; Model 1003D, Alzet) were filled with solutions of 30, 75 or 150 mg/ml inositol (delivering 29, 72 and 144 μg inositol/g body weight/day respectively for a 25 g mouse), or PBS as a control. Mini-pumps were incubated in sterile PBS at 37° C. for 4 hours and then implanted subcutaneously on the back of pregnant mice at E8.5. General anesthesia was induced by an intra-peritoneal injection of 0.01 ml/g body weight of a solution comprising 10% Hypnovel® (midazolam 5 mg/ml) and 25% Hypnorm® (fentanyl citrate 0.315 mg/ml, fluanisone 10 mg/ml) in sterile distilled water.
(§3) Pregnant females were killed at E18.5, and the total number of implantations, classified as viable fetuses or resorptions, was recorded. Fetuses were dissected from the uterus and inspected immediately for the presence of open lumbo-sacral spina bifida and tail flexion defects: the primary manifestations of the curly tail genetic defect.

[5] = test system: curly tail fetuses (spina bifida and tail flexion defects); test: In utero inositol treatment, oral dosing by gavage, fetuses inspected at E18.5; type: in vivo, mouse; settings: for Curly tail, % of total for treatment group / Curly tail, number of fetuses / No. uterine resorptions / No. viable fetuses / Normal, % of total for treatment group / Normal, number of fetuses / Resorptions as % of total number of implantations / Spina bifida ± curly tail, % of total for treatment group / Spina bifida ± curly tail, number of fetuses / Mean litter size ± SEM: oral 800 μg inositol/g body weight/day; for Mean litter size ± SEM: viable fetuses per litter; for Reduction in the frequency of spina bifida / Effect on frequency of spina bifida among offspring: oral 800 μg/g body weight/day; for Effect on frequency of spina bifida among offspring: E8.5 to E10.5; for Likelihood of fetuses being normal vs PBS (ordinal multilevel regression): oral dosing study
Procedure: as §2
In utero inositol treatment (oral dosing)—For oral administration, pregnant mice were gavaged with 0.5 ml inositol solution in PBS at 12 hourly intervals from E8.5 to E10.5 (six doses in total; 800 μg/g body weight/day).
as §3

[6] = test system: rat fibroblasts expressing the human insulin receptor; settings: cited from earlier work
[7] = test system: rats rendered diabetic by streptozotocin; settings: cited from earlier work
[8] = test system: patients with polycystic ovary syndrome; settings: cited from earlier work
NTDs = settings: folic acid supplementation in early pregnancy; cited from earlier work
[9] = test system: curly tail mice (spinal NTDs); settings: cultured embryos and offspring of curly tail mice treated during pregnancy; cited from earlier work
[10] = subcutaneous 29 μg inositol/g body weight/day
[11] = subcutaneous 72 μg inositol/g body weight/day
[12] = subcutaneous 144 μg inositol/g body weight/day

Crown-rump length compared with PBS-treated controls [3]: no significant difference | No. uterine resorptions [5]: 3 | Resorptions as % of total number of implantations [5]: 7.1%
SMILES: OC1C(O)C(O)C(O)C(O)C1O [D-chiro-inositol]
Mean posterior neuropore length (curly-tail mouse embryos; 20 μg/ml, 24 hours): 0.095±0.055 | Mean posterior neuropore to crown-rump length ratio (curly-tail mouse embryos; 20 μg/ml, 24 hours): .029±.018 | Fold decrease in mean posterior neuropore to crown-rump length ratio (curly-tail mouse embryos; 20 μg/ml, 24 hours, compared to control or myo-inositol treated): 5.6 fold | Fold decrease in mean posterior neuropore length (curly-tail mouse embryos): 6 fold | Fold decrease in number of fetuses with spina bifida compared to control [1]: 9 fold | Fold decrease in number of fetuses with spina bifida compared to myo-inositol [1]: 4 fold | Number of fetuses showing NTDs characterized by spina bifida [1]: 1 | Percent of treated fetuses showing spina bifida [1]: 1.7% | Number of fetuses showing NTDs characterized by spina bifida [2]: 1 | Percent of treated fetuses showing spina bifida [2]: 2.3% | Fold decrease in number of fetuses with spina bifida compared to control ([2]; oral): 8 fold | Fold decrease in number of fetuses with spina bifida compared to myo-inositol ([2]; oral): 3 fold | Effect on posterior neuropore length ([3]; 20 μg/ml): reduced neuropore length | Effect on posterior neuropore length ([3]; 50 μg/ml): reduced neuropore length | Effect on posterior neuropore length ([3]; 5-10 μg/ml): not different from PBS-treated controls | Likelihood of fetuses being normal vs PBS (ordinal multilevel regression) [4]: significantly more likely to be normal | Curly tail, % of total for treatment group [4, 10]: 65.4% | Curly tail, number of fetuses [4, 10]: 17 | Normal, % of total for treatment group [4, 10]: 23.1% | Normal, number of fetuses [4, 10]: 6 | Spina bifida ± curly tail, % of total for treatment group [4, 10]: 11.5% | Spina bifida ± curly tail, number of fetuses [4, 10]: 3 | Curly tail, % of total for treatment group [4, 11]: 45.4% | Curly tail, number of fetuses [4, 11]: 39 | Normal, % of total for treatment group [4, 11]: 52.3% | Normal, number of fetuses [4, 11]: 45 | Spina bifida ± curly tail, % of total for treatment group [4, 11]: 2.3% | Spina bifida ± curly tail, number of fetuses [4, 11]: 2 | Curly tail, % of total for treatment group [4, 12]: 46.5% | Curly tail, number of fetuses [4, 12]: 46 | Normal, % of total for treatment group [4, 12]: 48.5% | Normal, number of fetuses [4, 12]: 48 | Spina bifida ± curly tail, % of total for treatment group [4, 12]: 5.0% | Spina bifida ± curly tail, number of fetuses [4, 12]: 5 | Decrease in spina bifida frequency relative to PBS controls [4]: 73-83% | Curly tail, % of total for treatment group [5]: 30.8% | Curly tail, number of fetuses [5]: 12 | No. viable fetuses [5]: 39 | Normal, % of total for treatment group [5]: 66.7% | Normal, number of fetuses [5]: 26 | Spina bifida ± curly tail, % of total for treatment group [5]: 2.6% | Spina bifida ± curly tail, number of fetuses [5]: 1 | Mean litter size ± SEM [5]: 6.50 ± 1.09 | Reduction in the frequency of spina bifida [5]: 86% | Effect on frequency of spina bifida among offspring [5]: marked reduction in the frequency of spina bifida | Likelihood of fetuses being normal vs PBS (ordinal multilevel regression) [5]: more likely to be normal | Effect of insulin stimulation on incorporation into phospholipids [6]: significant increase | Reduction in plasma glucose level compared with exogenous myo-inositol [7]: much larger reduction in plasma glucose level | Effect on the action of insulin [8]: increase the action of insulin

SMILES: Nc1nc2ncc(CNc3ccc(C(=O)N[C@@H](CCC(=O)O)C(=O)O)cc3)nc2c(=O)[nH]1 [folic acid]
NTDs that can be prevented (NTDs): Up to 70%

Crown-rump length compared with PBS-treated controls [3]: no significant difference | No. uterine resorptions [5]: 3 | Resorptions as % of total number of implantations [5]: 7.9%
SMILES: O[C@H]1[C@H](O)[C@@H](O)[C@H](O)[C@@H](O)[C@H]1O [myo-inositol, reference compound]
Mean posterior neuropore length (curly-tail mouse embryos; 20 μg/ml, 24 hours): 0.601±0.090 | Mean posterior neuropore to crown-rump length ratio (curly-tail mouse embryos; 20 μg/ml, 24 hours): 0.172 ±0.026 | Fold decrease in mean posterior neuropore length (curly-tail mouse embryos): 6 fold | Number of fetuses showing NTDs characterized by spina bifida [1]: 4 | Percent of treated fetuses showing spina bifida [1]: 6.3% | Number of fetuses showing NTDs characterized by spina bifida [2]: 3 | Percent of treated fetuses showing spina bifida [2]: 8.6% | Effect on posterior neuropore length ([3]; 20 μg/ml): not different from PBS-treated controls | Effect on posterior neuropore length ([3]; 50 μg/ml): comparable effect | Likelihood of fetuses being normal vs PBS (ordinal multilevel regression) [4]: reached statistical significance | Curly tail, % of total for treatment group [4, 10]: 41.4% | Curly tail, number of fetuses [4, 10]: 12 | Normal, % of total for treatment group [4, 10]: 37.9% | Normal, number of fetuses [4, 10]: 11 | Spina bifida ± curly tail, % of total for treatment group [4, 10]: 20.7% | Spina bifida ± curly tail, number of fetuses [4, 10]: 6 | Curly tail, % of total for treatment group [4, 11]: 55.2% | Curly tail, number of fetuses [4, 11]: 37 | Normal, % of total for treatment group [4, 11]: 38.8% | Normal, number of fetuses [4, 11]: 26 | Spina bifida ± curly tail, % of total for treatment group [4, 11]: 6.0% | Spina bifida ± curly tail, number of fetuses [4, 11]: 4 | Curly tail, % of total for treatment group [4, 12]: 55.3% | Curly tail, number of fetuses [4, 12]: 52 | Normal, % of total for treatment group [4, 12]: 36.2% | Normal, number of fetuses [4, 12]: 34 | Spina bifida ± curly tail, % of total for treatment group [4, 12]: 8.5% | Spina bifida ± curly tail, number of fetuses [4, 12]: 8 | Decrease in spina bifida frequency relative to PBS controls [4]: 54-56% | Curly tail, % of total for treatment group [5]: 42.9% | Curly tail, number of fetuses [5]: 15 | No. viable fetuses [5]: 35 | Normal, % of total for treatment group [5]: 48.6% | Normal, number of fetuses [5]: 17 | Spina bifida ± curly tail, % of total for treatment group [5]: 8.6% | Spina bifida ± curly tail, number of fetuses [5]: 3 | Mean litter size ± SEM [5]: 5.83 ± 0.48 | Reduction in the frequency of spina bifida [5]: 53% | Effect on frequency of spina bifida among offspring [5]: marked reduction in the frequency of spina bifida | Likelihood of fetuses being normal vs PBS (ordinal multilevel regression) [5]: did not differ significantly | Effect on incidence of spinal NTDs [9]: significantly reducing the incidence of spinal NTDs | Effect of insulin stimulation on incorporation into phospholipids [6]: only marginal
